Key:
Type in all cases: cell-based
Cal27 cells [1] = experiment: 2-NBDG glucose uptake assay (flow cytometry), Cal27; conditions: Cal27, 10 μM and 30 μM, 72 h, vs DMSO control
Method: (§1) FaDu and Cal27 cells were treated with test compounds (0.2 million cells per treatment) and were incubated for 1 h with 100 μM of 2-NBDG (Invitrogen, N13195), in glucose free medium, washed with ice-cold PBS, and re-suspended in 500 μL of PBS and maintained on ice to perform flow cytometric analyses within 30 min. The mean fluorescent intensity (MFI) readout reflects the amount of fluorescent glucose analog taken up by the cells, providing insight into their glucose uptake capacity. The percent (%) cell population positive for glucose uptake (shown with a right shift of the histogram peaks) were also plotted for both the cell lines. For MMP analysis, cells were incubated with 200 nM of TMRE (Invitrogen, T669) for 30 min. For each measurement, data was collected for 10,000 events using a BD FACS Aria III (Becton Dickinson, San Jose, CA) instrument.
2-[N-(7-Nitrobenz-2-oxa-1,3-diaxol-4-yl) amino]-2-deoxyglucose (2-NBDG) uptake into cells happens via glucose transporters and post uptake 2-NBDG gets phosphorylated by hexokinases. Since cancer cells represent higher glycolytic activity, the inhibition of HK2 activity in cancer cells is actively reflected in the inhibition of 2-NBDG uptake ([Hung et al., 2022]; [Li et al., 2022]). […] In this assay, the MFI of intracellular 2-NBDG serves as a quantitative measure of cellular glucose uptake. […] This finding is further supported by the increased % population of 2-NBDG positive cells in Cal27 cells compared to FaDu cells (Figure 3).

FaDu cells [2] = experiment: Cell cycle analysis (propidium iodide, flow cytometry), FaDu; conditions: 10 and 30 μM, 72 h
Method: (§2) FaDu and Cal27 cells were treated with the test compounds (0.5 million cells per treatment) for 72 h, and harvested for cell cycle analysis (Cat# BD340242) and apoptosis analysis (Cat# BD556547) by flow cytometry according to manufacturer’s instructions.
(§3) To determine the effect of HK2 inhibition in the progression of the cell cycle, flow cytometric analysis of compound-treated FaDu and Cal27 cells was carried out 72 h post-treatment. Cell cycle analysis is carried out to quantify the DNA content and estimate the percentages of the cell population in different cell cycle phases via propidium iodide staining. […] To determine the apoptosis-inducing activity of HK2 inhibitors, 10 and 30 μM of compounds H2 and H10 treated FaDu and Cal27 cells were stained with annexin V conjugated with FITC, followed by propidium iodide staining.

Cal27 cells [3] = experiment: Annexin V FITC / propidium iodide apoptosis assay, Cal27; conditions: Cal27, 10 and 30 μM, 72 h
Method: as §2, §3

FaDu cells [4] = experiment: Mitochondria membrane potential by TMRE uptake, FaDu; conditions: 30 μM, 4 h
Method: as §1
(§4) Mitochondria utilize the oxidizable substrates to produce a membrane potential as the proton gradient ([Sivandzade et al., 2019]). […] To determine the change in MMP post-treatment with HK2 inhibitors, the cells were treated with 200 nM of TMRE (tetramethyl rhodamine ethyl ester, a cell-permeant cationic dye readily sequestered by active mitochondria) and flow cytometric analyses of TMRE uptake was carried out. […]

[5] = test system: mitochondrial HK2 (mitoHK2) in Cal27 cells; experiment: Western blot fractionation, mitoHK2 dissociation; conditions: 4 h
Method: Cal27 cells were treated with the test compound (1 million cells per treatment for 4 h) and were processed for mitochondria isolation using a homogenization buffer containing 210 mM mannitol, 70 mM sucrose, 5 mM tris-HCl, (pH 7.5) and 1 mM EDTA (pH 7.5). The cell pellet was sheared with a total of 90 strokes in the homogenization buffer in a span of 1 h on ice. The lysate was centrifuged at 800 rpm for 10 min and the mitochondria enriched supernatant was isolated. The pellet was again lysed using RIPA lysis buffer to obtain the cytosolic fraction. The mitochondrial fractions and the cytosolic fractions were loaded on a 10% SDS-PAGE gel. The antibodies used were anti-HK2 antibody (CST, Cat#2867), anti β-actin antibody (CST, Cat#4970) and mitochondrial marker anti-VDAC antibody (CST, Cat# 4661). The whole cell lysates were obtained using RIPA lysis buffer alone. The quantifications were performed using ImageJ software.
as §4

LC3B in Cal27 cells = experiment: Immunofluorescence LC3B / MitoTracker Red colocalization (mitophagy); conditions: Cal27, 4 h
Method: Cal27 cells were treated with respective compounds for 4h, and washed with PBS and fixed with 100% methanol. The non-specific antibody binding was blocked by incubating with 5% goat serum in 0.3% Triton X-100 for 1 h. The diluted primary antibody (LC3B mAb, CST Cat# 3868) and MitoTracker Red (CST, Cat# 9082) were applied and samples were incubated overnight at 4°C followed by addition of fluorescently labelled secondary antibody for 2 h at room temperature and visualized using Leica DMi8 laser scanning confocal microscope using the Leica LAS X software. To analyze the extent of mitophagy in the captured images, the colocalization area of green (LC3B) and red (Mito-Red) portions were quantified using the LAS X software. The LC3B MFI was also quantified and represented in gray values.
as §4, with “2019]). Loss in mitochondrial membrane potential (MMP) is a direct measurement of mitochondrial stress and may cause the release of apoptotic factors leading to cell death ([Zhang et al., 2017]).” for “2019]).”

[6] = test system: EGFR tyrosine kinase phosphorylation in Cal27 cells; experiment: Western blot pEGFR in Cal27 lysates; conditions: Cal27, 30 µM, 4 h post-treatment

## COc1ccc(CNC(=O)c2nc3ccccc3s2)cc1O [Compound 14, N-(3-hydroxy-4methoxybenzyl)benzo[d]thiazole-2-carboxamide]
Cal27 cells [1]
  2-NBDG MFI: significant reduction
FaDu cells [2]
  subG1 phase population: increase in subG1 phase population
Cal27 cells [3]
  apoptosis-inducing activity: late apoptotic and necrotic effects
FaDu cells [4]
  MMP reduction compared to H10 and CCCP: more effective in reducing the MMP
[5]; Cal27, 30 μM
  mitochondrial HK2 (mitoHK2) dissociation: induced the dissociation of mitoHK2
[5]; Cal27 whole cell lysate, 30 μM
  expression of total HK2 protein: without altering the expression of total HK2 protein
LC3B in Cal27 cells
  LC3B expression and co-localization with MitoTracker Red (mitophagy): increase in LC3B expression
[6]
  EGFR tyrosine kinase phosphorylation: does not significantly impact

Source: article PMC10961359, “Targeting hexokinase 2 for oral cancer therapy: structure-based design and validation of lead compounds” (Frontiers in Pharmacology, 2024)
